Here are results for three compounds from patent US10761045B2, “Sensor, sensor system, method of manufacturing sensor, and method of measuring concentration of target substance” (PHC Holdings Corporation, priority 2010, dated 2020).

A short description of series [1]: Stability test (exposure test) of sensor at 30° C., 80% humidity. The settings on record: additive in reagent layer; additive conc. 1.0-5.0 mM.
Procedure: Sensors were manufactured in the same manner as described in section [1-5] using the reagent solutions prepared above. The sensors manufactured were exposed to an environment of high temperature and humidity (30° C., 80% relative humidity) for 24 hours. Response current values of the pre- and post-exposed sensors were measured for a series of glucose solutions of known concentrations.
Sensors were manufactured using fresh reagent solutions having the same compositions as described above. The sensors were subjected to an exposure experiment where they were allowed to stand for 24 hours at 30° C. and 80% humidity. Response current values of non-exposed sensors (i.e., sensors stored under the ambient condition (25° C., 5% humidity) for 24 hours) and the exposed sensors were measured for a series of glucose solutions of known concentrations.
Series [2] can be described thus: Cyclic voltammetry of reagent solutions A and B (PQSA, FAD-GDH, with or without imidazole). It counts as physicochemical. The method, then:
Reagent solutions A and B having the following compositions were prepared.
Additive: Imidazole (structural formula is illustrated below) (7.5 mM)
Electron acceptor: PQSA (7.5 mM)
Enzyme: FAD dependent-glucose dehydrogenase (FAD-GDH) 3.5 MU/L (liter)
Buffer solution: 100 mM sodium phosphate buffer solution (pH 7.0)
Reagent solution B has the same composition as reagent solution A except the absence of imidazole.
First, by sputtering palladium, 8 nm-thick conductive layer 3 was deposited on substrate 2 which was 30 mm in length, 7 mm in width and 0.2 mm in thickness and which contained polyethylene terephthalate as its main component. Thereafter, a 0.1 mm-width non-conductive track was formed by laser ablation, to form electrodes 31 to 33. Electrode 31 corresponds to a working electrode, and electrode 32 to a counter electrode. Spacer 5 (0.145 mm thick) having a cut-out with a length of 3.4 mm and a width of 1.2 mm and cover 6 were sequentially attached to the substrate having the electrodes formed thereon. In this way a sensor electrode was manufactured that has capillary 51 with a volume of 0.6 μL.
Cyclic voltammetry was performed for the resultant reagent solution using the aforementioned sensor electrode. As a reference electrode, a silver/silver chloride (saturated potassium chloride) electrode (hereinafter “Ag|AgCl”) was used. […]

Series [3] is described as follows: Storage stability of reagent solution (response current of sensors made with stored vs fresh reagent solution). Format: physicochemical. The settings on record: additive in reagent solution C composition (PQSA, FAD-GDH); additive conc. 1.0-5.0 mM. The text has this: A sensor having the configuration illustrated in FIG. 1 was manufactured. The detailed procedure will now be described. First, by sputtering palladium, 8 nm-thick conductive layer 3 was deposited on substrate 2 which was 30 mm in length, 7 mm in width and 0.2 mm in thickness and which contained polyethylene terephthalate as its main component. Thereafter, a 0.1 mm-width non-conductive track was formed by laser ablation, to form electrodes 31 to 33. Electrode 31 was designed to function as a working electrode, electrode 32 as a counter electrode, and electrode 33 as a sensing electrode.
Using a microsyringe, 1.2 μL of each reagent solution was applied to form reagent layer 4 in a shape of 2.2 mm diameter-circular. After formation of reagent layer 4, spacer 5 (0.145 mm thick) having a cut-out with a length of 3.4 mm a width of 1.2 mm and cover 6 were sequentially attached to the substrate having the electrodes formed thereon. In this way a sensor was manufactured that has a capillary having a volume of 0.6 μL. […]
Response current values of each sensor were measured using a series of glucose solutions of known concentrations.
By adding as an additive imidazole, histamine, histidine, 2-aminoimidazole, 4,5-bis(hydroxymethyl)imidazole, 1,2,4-triazole, 3-amino-1,2,4-triazole, 4-amino-1,2,4-triazole, 3,5-diamino-1,2,4-triazole, 2-methylimidazole, or 1,2-dimethylimidazole, reagent solutions were prepared that contain the same composition as reagent solution C except the type and concentration of the additive. The concentrations of the additives are as indicated in Tables below and the accompanying drawings.
Further, sensors were manufactured using the same reagent solutions stored at 25° C. and 5% humidity for 24 hours after preparation. […]

Series [4] is described as follows: Redox / oxidation potentials stated in the description. It counts as physicochemical.

For Imidazole, in series [1], the “Sensor stability % change in response current value between before and after 24 hours exposure at 30° C. and 80% humidity” value was −50%. Besides, in series [2] (21 hours at 25° C. and 5% relative humidity, FIG. 4), the “shift of the peak oxidation potential of PQSA after storage of reagent solution” value is given as “positive shift of the peak oxidation potential was limited”. In addition, in series [2] (imidazole 7.5 mM, PQSA 7.5 mM, FAD-GDH, pH 7.0, FIG. 4 vs FIG. 5), the “shift of the peak potential of PQSA on addition of additive” value was “negative shift”. In addition, the “Reagent solution stability % change in response current value between before and after 24 hours storage at 25° C.” value in series [3] was −1%.
For the compound `O=C1C(=O)c2ccccc2-c2ccccc21` [9,10-phenanthrenequinone], the “redox potential of exemplary electron acceptors” value in series [4] was −180 mV.
Take `O=C1C=C(S(=O)(=O)O)c2ccccc2C1=O` [1,2-naphthoquinone-4-sulfonic acid]: the “redox potential of exemplary electron acceptors” value in series [4] is −16 mV.
